Measurements: ChEMBL document CHEMBL4052689, “Discovery and optimization of 3-(4-aryl/heteroarylsulfonyl)piperazin-1-yl)-6-(piperidin-1-yl)pyridazines as novel, CNS penetrant pan-muscarinic antagonists” (Bioorg Med Chem Lett, 2017)

Tests used:
[1] = target: T1, Muscarinic acetylcholine receptor M4 (Homo sapiens) (UniProt P08173); assay: Antagonist activity at human recombinant muscarinic M4 receptor expressed in CHO cells co-transfected with Gqi5 assessed as acetylcholine-induced response in presence of EC80 acetylcholine by calcium mobilization assay relative to untreated control; assay type: functional, cell-based; parameters: scale not given: the % may be the effect or the level left
T1 sequence (whole entry): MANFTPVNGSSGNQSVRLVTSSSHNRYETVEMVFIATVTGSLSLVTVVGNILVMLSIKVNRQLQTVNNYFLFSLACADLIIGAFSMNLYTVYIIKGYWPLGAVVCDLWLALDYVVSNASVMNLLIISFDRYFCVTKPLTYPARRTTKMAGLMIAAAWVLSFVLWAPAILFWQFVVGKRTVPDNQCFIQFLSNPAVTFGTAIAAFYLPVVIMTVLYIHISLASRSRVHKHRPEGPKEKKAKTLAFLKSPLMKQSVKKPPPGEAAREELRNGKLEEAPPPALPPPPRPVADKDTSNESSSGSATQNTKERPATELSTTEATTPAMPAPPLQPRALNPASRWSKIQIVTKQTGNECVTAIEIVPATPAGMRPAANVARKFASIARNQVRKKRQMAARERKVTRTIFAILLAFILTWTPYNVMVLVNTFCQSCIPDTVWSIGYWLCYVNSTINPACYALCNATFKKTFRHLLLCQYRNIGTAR

[2] = target: T2, Muscarinic acetylcholine receptor M4 (Homo sapiens, UniProt P08173); assay: Antagonist activity at human recombinant muscarinic M4 receptor expressed in CHO cells co-transfected with Gqi5 in presence of EC80 acetylcholine by calcium mobilization assay; assay type: functional, cell-based
T2 sequence (P08173 whole entry): T1 sequence (whole entry)

Plasma [3] = assay: Protein binding in human plasma; assay type: ADME, cell-free
Plasma [4] = assay: Protein binding in rat plasma; assay type: ADME, cell-free

Row | SMILES | Activity [1] [%] | IC50 ([2]; read-out: IC50) [nM] | IC50 ([2]; read-out: pIC50 (converted)) [nM] | PPB (Plasma [3]) | PPB (Plasma [4])
1 | Cc1noc(C)c1S(=O)(=O)N1CCN(c2ccc(N3CCC[C@@H]3C)nn2)CC1 | 10 | 3310 | – | – | –
2 | C[C@H]1CCCN1c1ccc(N2CCN(S(=O)(=O)c3ccc4c(c3)OCO4)CC2)nn1 | 14 | 2730 | 2570 | – | –
3 | C[C@@H]1CCCCN1c1ccc(N2CCN(S(=O)(=O)c3ccccc3Cl)CC2)nn1 | 12 | 6080 | 5750 | – | –
4 | C[C@H]1COCCN1c1ccc(N2CCN(S(=O)(=O)c3ccc4c(c3)OCO4)CC2)nn1 | 63 | > 10000 | – | – | –
5 | C[C@H]1CCCCN1c1cnc(N2CCN(S(=O)(=O)c3ccc4c(c3)OCO4)CC2)cn1 | – | > 10000 | – | – | –
6 | CC1(C)CCCN(c2ccc(N3CCN(S(=O)(=O)c4ccccc4Cl)CC3)nn2)C1 | 5 | 940 | – | – | –
7 | C[C@H]1CCCCN1c1ccc(N2CCN(S(=O)(=O)C3CCCCC3)CC2)nn1 | 51 | 4020 | – | Active | Active
8 | C[C@H]1CCCCN1c1ccc(N2CCN(S(=O)(=O)c3ccccc3C(F)(F)F)CC2)nn1 | 4 | 520 | – | Active | Active
9 | O=S(=O)(c1ccc2c(c1)OCO2)N1CCN(c2ccc(N3CCCCCC3)nn2)CC1 | 20 | 290 | – | – | –
10 | C[C@H]1CCCN1c1ccc(N2CCN(S(=O)(=O)c3ccccc3Cl)CC2)nn1 | 9 | 2900 | – | – | –
11 | Cc1noc(C)c1S(=O)(=O)N1CCN(c2ccc(N3CCOC[C@@H]3C)nn2)CC1 | 66 | > 10000 | – | – | –
12 | C[C@H]1CCCCN1c1ccc(N2CCN(S(=O)(=O)c3ccc4c(c3)OCO4)CC2)cc1 | – | 1330 | – | – | –
13 | O=S(=O)(c1ccc2c(c1)OCO2)N1CCN(c2ccc(N3CCCCC3)nn2)CC1 | 55 | 730 | 661 | – | –
14 | CC1(C)CCCN(c2ccc(N3CCN(S(=O)(=O)c4ccc5c(c4)OCO5)CC3)nn2)C1 | 14 | 470 | 457 | – | –
15 | Cc1noc(C)c1S(=O)(=O)N1CCN(c2ccc(N3CCCCCC3)nn2)CC1 | 8 | 430 | 407 | – | –
16 | O=S(=O)(c1ccccc1Cl)N1CCN(c2ccc(N3CCCCCC3)nn2)CC1 | 6 | 1270 | – | – | –

Results, then the molecule that gave them:

Row | Activity [1] [%] | IC50 ([2]; read-out: IC50) [nM] | IC50 ([2]; read-out: pIC50 (converted)) [nM] | PPB (Plasma [3]) | PPB (Plasma [4]) | SMILES
17 | 11 | 2380 | – | Active | Active | COc1ccccc1S(=O)(=O)N1CCN(c2ccc(N3CCCC[C@@H]3C)nn2)CC1
18 | 12 | 5580 | 5370 | – | – | O=S(=O)(c1ccccc1Cl)N1CCN(c2ccc(N3CCCCC3)nn2)CC1
19 | 8 | 1600 | – | Active | Active | C[C@H]1CCCCN1c1ccc(N2CCN(S(=O)(=O)c3nccn3C)CC2)nn1
20 | 30 | 2340 | 2290 | Active | Active | C[C@H]1CCCCN1c1ccc(N2CCN(S(=O)(=O)c3ccc(Cl)cc3)CC2)nn1
21 | 46 | 2800 | 2630 | Active | Active | COc1ccc(S(=O)(=O)N2CCN(c3ccc(N4CCCC[C@@H]4C)nn3)CC2)cc1OC
22 | 8 | 2570 | – | Active | Active | C[C@H]1CCCCN1c1ccc(N2CCN(S(=O)(=O)c3ccccc3)CC2)nn1
23 | – | > 10000 | – | – | – | C[C@H]1CCCCN1c1ccc(N2CCN(S(=O)(=O)c3ccc4c(c3)OCO4)CC2)cn1
24 | – | 1350 | – | – | – | C[C@H]1CCCCN1c1ccc(N2CCN(S(=O)(=O)c3ccc4c(c3)OCO4)CC2)nc1
25 | 51 | > 10000 | – | – | – | O=C1CCCCN1c1ccc(N2CCN(S(=O)(=O)c3ccccc3Cl)CC2)nn1
26 | 6 | 90 | – | Active | Active | Cc1noc(C)c1S(=O)(=O)N1CCN(c2ccc(N3CCCC[C@@H]3C)nn2)CC1
27 | 56 | > 10000 | – | – | – | C[C@H]1COCCN1c1ccc(N2CCN(S(=O)(=O)c3ccccc3Cl)CC2)nn1
